Where a SMILES comes first, the peptide text is derived from it.
System: L. crispatus and E. coli
Assay: Therapeutic Effect Protocol: L. crispatus / E. coli co-culture, ratio after 36 hours
Type: cell-based, Lactobacillus crispatus; E. coli
Details: nitrogen compound 0.10 wt/vol % with 1.0 wt/vol % α methyl-D glucoside (10:1); 36 hours anaerobic co-culture, 37° C.
Procedure: As used herein the term “therapeutic effect” refers to the ability of the compositions and formulations of the present invention to stimulate the growth of Lactobacillus relative E. coli measured according to the Therapeutic Effect Protocol described below. Generally, therapeutic effect is expressed as a ratio of Lactobacillus to E. coli and is desirably greater than about 2, more preferably greater than about 20 and more desirably greater than about 100.
The data in Table 1 was tested according to the Therapeutic Effect Protocol as described further herein. The nitrogen compounds were tested for their therapeutic efficacy at three different concentrations when combined with α methyl-D glucoside (1% wt/vol %). The concentrations of the nitrogen containing compounds that were tested were 1% wt/vol %, 0.5% wt/vol %, and 0.1% wt/vol %.
Colonies of L. crispatus and E. coli were prepared as follows. A colony of L. crispatus was transferred to 7 ml de Man, Rogosa & Sharpe (MRS) broth and incubated anaerobically (using BD GasPak EZ anaerobe container system with indicator) at 37° C. without shaking for 18-20 hours. A colony of E. coli was transferred to 5 ml Tryptic Soy Broth (TSB) and incubated aerobically (shaking at 100 rpm) at 37° C. for 18-20 hours.
Colonies were then inoculated as follows. Bacterial cultures were gently vortexed and 1 mL of each culture was transferred to a corresponding 2.0 mL micro-centrifuge tube and then centrifuged for two minutes at 14,500 rpm. The cultural supernatant was removed and the cell pellet was re-suspended in 1 mL of 0.95% (wt/vol %) saline. […] For L. crispatus, the pellet was re-suspended in 1 mL of 0.95% saline to achieve ˜10^7-10^8 cfu/mL. For E. coli, the pellet was re-suspended in 1 mL of 0.95% saline to achieve ˜10^8-10^9 cfu/mL.
Media were prepared as follows.
(§1) All of the ingredients in Table 2 were combined and the pH was adjusted to 6.5. […] To evaluate the effect of various nitrogen containing therapeutic agents on the growth of bacteria, the LAPT-g media, prepared as described above, was supplemented with various nitrogen containing compound therapeutic agents to a final test concentration between 0.1 and 1.0%. As initial screening measures, solubility and initial pH of each composition were checked. If a specific composition was insoluble (as detected by visual indication of precipitates or turbidity), then no further therapeutic efficacy testing was undertaken on that composition. Additionally, if the initial pH of the composition was below 5.5 (“Low”) or was above 6.5 (“High”), then no further therapeutic efficacy testing was undertaken on that composition.
Five milliliters (5 mL) of each medium was transferred to a test tube in duplicates for subsequent inoculation. A master mixture of L. crispatus and E. coli, prepared as described above, was prepared in 1,000:1 ratio. Each (5 ml) test tube was inoculated with the master mixture to give 10^5-10^6 total CFU L. crispatus and 100-1,000 total CFU E. coli per tube.
To establish a negative control, one tube was vortexed and 100 μL was removed to determine the initial cell concentrations by serial dilutions and plating (2 plates per dilution). L. crispatus is selected on MRS agar plates incubated anaerobically at 37° C. for two days. E. coli is selected on TSA plates incubated aerobically at 37° C. for one day. The co-cultures were incubated in an anaerobic container with BD GasPaks at 37° C. for 36 hours.
The effect of the α methyl-D glucoside and the nitrogen containing compound therapeutic agents on the ratio of L. crispatus to E. coli was measured 36 hours after inoculation and a final pH of the test solutions was recorded. The co-culture tube was vortexed and 100 μL was removed to determine the final cell concentrations by serial dilutions and plating (2 plates per dilution). L. crispatus is selected on MRS agar plates incubated anaerobically at 37° C. for two days.

SMILES | Therapeutic Efficacy Results (Lactobacillus/E. coli) 0.10%
C[C@H](N)C(=O)N[C@@H](CC(=O)O)C(=O)O [Ala-Asp] (H-Ala-Asp-OH) | >100
O=C1NC(=O)C(=O)C(=O)N1 [Alloxan] | 4.83
NC(=O)[C@H]1O[C@@H](O)[C@H](O)[C@@H](O)[C@@H]1O [D-glucoronamide] | >122
N[C@@H](CS)C(=O)O [L-Cysteine] | >299
CSCC[C@H](NC(=O)CN)C(=O)O [Gly-Met] | 238

Same assay, conditions: nitrogen compound 0.50 wt/vol % with 1.0 wt/vol % α methyl-D glucoside (2:1); 36 hours anaerobic co-culture, 37° C.

SMILES | Therapeutic Efficacy Results (Lactobacillus/E. coli) 0.50%
O=C1NC(=O)C(=O)C(=O)N1 [Alloxan] | 1.45E+04
NC(=O)[C@H]1O[C@@H](O)[C@H](O)[C@@H](O)[C@@H]1O [D-glucoronamide] | 6.84E+03
N[C@@H](CS)C(=O)O [L-Cysteine] | 28.38
CSCC[C@H](NC(=O)CN)C(=O)O [Gly-Met] | >2343.75

Same assay, conditions: nitrogen compound 1.00 wt/vol % with 1.0 wt/vol % α methyl-D glucoside (1:1); 36 hours anaerobic co-culture, 37° C.

SMILES | Therapeutic Efficacy Results (Lactobacillus/E. coli) 1.00%
NC(=O)[C@H]1O[C@@H](O)[C@H](O)[C@@H](O)[C@@H]1O [D-glucoronamide] | 1.6
N[C@@H](CS)C(=O)O [L-Cysteine] | 10.44
CSCC[C@H](NC(=O)CN)C(=O)O [Gly-Met] | 0.81

Same assay, conditions: with α methyl-D glucoside; nitrogen compound 1 wt/vol %, 0.5 wt/vol % and 0.1 wt/vol %

SMILES | Therapeutic effect (ratio of Lactobacillus to E. coli greater than 2) at each concentration tested
N[C@@H](CS)C(=O)O [L-Cysteine] | provided a therapeutic effect

Same assay, conditions: with α methyl-D glucoside; ratio 1:1

SMILES | Therapeutic effect when ratio α methyl-D glucoside : nitrogen compound is less than 2:1 (1:1)
N[C@@H](CS)C(=O)O [L-Cysteine] | provided a therapeutic effect

Same assay, conditions: with α methyl-D glucoside; ratio at least about 2:1, not 1:1

SMILES | Therapeutic effect when ratio α methyl-D glucoside : nitrogen compound is at least about 2:1, but not at 1:1
C[C@H](N)C(=O)N[C@@H](CC(=O)O)C(=O)O [Ala-Asp] (H-Ala-Asp-OH) | provided a therapeutic effect
O=C1NC(=O)C(=O)C(=O)N1 [Alloxan] | provided a therapeutic effect
NC(=O)[C@H]1O[C@@H](O)[C@H](O)[C@@H](O)[C@@H]1O [D-glucoronamide] | provided a therapeutic effect
CSCC[C@H](NC(=O)CN)C(=O)O [Gly-Met] | provided a therapeutic effect

Same assay, conditions: with α methyl-D glucoside; ratios 2:1 and 10:1, not 1:1

SMILES | Therapeutic effect at ratio 2:1 and 10:1, but not at 1:1
O=C1NC(=O)C(=O)C(=O)N1 [Alloxan] | provided a therapeutic effect
NC(=O)[C@H]1O[C@@H](O)[C@H](O)[C@@H](O)[C@@H]1O [D-glucoronamide] | provided a therapeutic effect
CSCC[C@H](NC(=O)CN)C(=O)O [Gly-Met] | provided a therapeutic effect

System: not listed separately
Assay: Initial pH screening of the composition
Type: physicochemical
Details: nitrogen compound 0.10 wt/vol % with 1.0 wt/vol % α methyl-D glucoside in medium
Text: Each composition in Table 1 went through initial screening measures of solubility and initial pH (“I pH”). […] When a specific concentration of a nitrogen containing compound was insoluble, the initial and final pH (“F pH”) of the combined composition was not measured and accordingly are each marked as “NM.” Additionally, initial pH of the composition was checked as a screening measure. The initial pH was marked as either Low (“L”), High (“H”), or Pass (“P”). A Low initial pH corresponds to an initial pH being less than 5.5, a High initial pH corresponds to an initial pH being greater than 6.5, and a Pass initial pH corresponds to the pH being at or between 5.5-6.5. […] As part of the Therapeutic Effect Protocol, a final pH was also measured after the compositions that were tested against the Lactobacillus and E. coli.
as §1

SMILES | I pH (initial pH), 0.10%
C[C@H](N)C(=O)N[C@@H](CC(=O)O)C(=O)O [Ala-Asp] (H-Ala-Asp-OH) | P (a Pass initial pH corresponds to the pH being at or between 5.5-6.5)
O=C1NC(=O)C(=O)C(=O)N1 [Alloxan] | P (a Pass initial pH corresponds to the pH being at or between 5.5-6.5)
NC(=O)[C@H]1O[C@@H](O)[C@H](O)[C@@H](O)[C@@H]1O [D-glucoronamide] | P (a Pass initial pH corresponds to the pH being at or between 5.5-6.5)
N[C@@H](CS)C(=O)O [L-Cysteine] | P (a Pass initial pH corresponds to the pH being at or between 5.5-6.5)
CSCC[C@H](NC(=O)CN)C(=O)O [Gly-Met] | P (a Pass initial pH corresponds to the pH being at or between 5.5-6.5)

Same assay, conditions: nitrogen compound 0.50 wt/vol % with 1.0 wt/vol % α methyl-D glucoside in medium

SMILES | I pH (initial pH), 0.50%
C[C@H](N)C(=O)N[C@@H](CC(=O)O)C(=O)O [Ala-Asp] (H-Ala-Asp-OH) | L (A Low initial pH corresponds to an initial pH being less than 5.5)
O=C1NC(=O)C(=O)C(=O)N1 [Alloxan] | P (a Pass initial pH corresponds to the pH being at or between 5.5-6.5)
NC(=O)[C@H]1O[C@@H](O)[C@H](O)[C@@H](O)[C@@H]1O [D-glucoronamide] | P (a Pass initial pH corresponds to the pH being at or between 5.5-6.5)
N[C@@H](CS)C(=O)O [L-Cysteine] | P (a Pass initial pH corresponds to the pH being at or between 5.5-6.5)
CSCC[C@H](NC(=O)CN)C(=O)O [Gly-Met] | P (a Pass initial pH corresponds to the pH being at or between 5.5-6.5)

Same assay, conditions: nitrogen compound 1.00 wt/vol % with 1.0 wt/vol % α methyl-D glucoside in medium

SMILES | I pH (initial pH), 1.00%
C[C@H](N)C(=O)N[C@@H](CC(=O)O)C(=O)O [Ala-Asp] (H-Ala-Asp-OH) | L (A Low initial pH corresponds to an initial pH being less than 5.5)
O=C1NC(=O)C(=O)C(=O)N1 [Alloxan] | L (A Low initial pH corresponds to an initial pH being less than 5.5)
NC(=O)[C@H]1O[C@@H](O)[C@H](O)[C@@H](O)[C@@H]1O [D-glucoronamide] | P (a Pass initial pH corresponds to the pH being at or between 5.5-6.5)
N[C@@H](CS)C(=O)O [L-Cysteine] | P (a Pass initial pH corresponds to the pH being at or between 5.5-6.5)
CSCC[C@H](NC(=O)CN)C(=O)O [Gly-Met] | P (a Pass initial pH corresponds to the pH being at or between 5.5-6.5)

Reference: patent US12029748B2, “Synergistic composition for maintenance of healthy balance of microflora” (KIMBERLY-CLARK WORLDWIDE, INC., priority 2017, dated 2024)
